Article PMC5603603, “Linoleic and palmitoleic acid block streptokinase-mediated plasminogen activation and reduce severity of invasive group A streptococcal infection” (Scientific Reports, 2017)

Key:
S. pyogenes strain AP1 = test: Invasive humanized plasminogen murine infection model; format: in vivo, Humanized Plg transgenic AlbPLG1 mice; conditions: 50 µg s.c. (approx. 2 mg/kg) once on day of infection; for Hazard ratio (Mantel-Haenszel) treated/untreated: 1 × 10^7 cfu AP1 s.c.; for survival time in comparison with the untreated group: p = 0.0021
Protocol: All animal experiments were performed in strict accordance with the guidelines of the “European Convention for the Protection of Vertebrate Animals used for Experimental and other Scientific purposes”, with the “Australian Code of Practice for the Care and Use of Animals for Scientific Purposes” and with the “Guidelines for the Care and Use of Laboratory Animals” (National Health and Medical Research Council, Australia). All experiments conducted in Germany were approved by the ethical board of “Niedersächsisches Landesamt für Verbraucherschutz und Lebensmittelsicherheit”, Oldenburg, Germany (animal ethics no.: 33.9-42502-04-12/1009). All experiments conducted in Australia were approved by the University of Queensland Animal Ethics Committee, Brisbane, Australia (animal ethics no.: SCMB/ 553/12/NHMRC). Humanized Plg transgenic AlbPLG1 mice, heterozygous for the human Plg gene[6], were bred and used in the animal facility at the Helmholtz Centre for Infection Research or at the Australian Infectious Disease Research Centre. An overnight culture of the strain AP1 (in THY medium) was re-inoculated in fresh THY medium and grown until mid-log phase (OD 0.4–0.6). Then the bacteria were centrifuged at 4332 × g for 10 min and washed twice in PBS. They were resuspended in PBS and adjusted to an OD of 1.0. Sex- and age-matched (eight- to sixteen-week-old) groups of C57Bl6/J huPlg positive transgenic mice were infected s.c. with 1 × 10^7 cfu of S. pyogenes strain AP1. Cohorts of 15–16 mice were used (the experiment was performed four times with cohorts of 3–5 mice). The specific inoculum dose was administered in a 100 µl volume. Untreated mice received PBS subcutaneously (s.c.) as a control on the day of infection. Treated mice received either 50 µg of linoleic acid (diluted in PBS) or 50 µg of palmitoleic acid (diluted in PBS) s.c. on the day of infection. During the experiment mice were monitored for locomotion, behavior, appearance and weight. Mice were euthanized when they lost more than 20% of weight or when they reached a score of two for three of the following parameters: locomotion, appearance or behavior (authority regulations). The experiment ended after 7 days or after all mice had died.
Significance was determined by using a two-tailed, paired student’s t-test. Survival data were analyzed using GraphPad Prism7 Software. Significance was determined by using a Mantel-Cox- and a Wilcoxon-Test.

staphylokinase = biological target: T1, staphylokinase (Staphylococcus aureus, UniProt P68801); test: Plasminogen assay with staphylokinase as activator of plasminogen; format: biochemical; conditions: staphylokinase 2 µg/ml; compared to untreated control
T1 construct: purchased Cedarlane Labs
Protocol: Supernatant of an overnight culture of the GAS strain A614 was used as this strain secretes a cluster 2a type streptokinase. 75 µl of the culture supernatant was added to the wells of a 96well plate followed by 69 µl PBS, 5 µl S-2251 (10 mM stock solution, chromogenic substrate for the detection of plasmin, Chromogenix) and 1 µl plasminogen (1 mg/ml stock solution, Biopur or Sigma). 1 µl of each myxobacterial extract or each myxobacterial compound (dissolved in methanol, 1 mM) was added to test possible inhibition of plasminogen activation. The assay was run at 37 °C. The absorption was measured at the beginning of the reaction and then every hour at 405 nm after 3 sec of shaking on a Tecan Sunrise ELISA Reader using Magellan software. The reaction was finished when untreated samples had reached an OD405nm of about 1.
The assay was conducted as described above using staphylokinase (Cedarlane Labs) as an activator of plasminogen (staphylokinase final concentration 2 µg/ml per well in 75 µl of PBS. Stocks of LA and PA were prepared in methanol and then diluted in PBS. The untreated control received the same amount of methanol diluted in PBS as in case of treatment with PA or LA. Each experiment was repeated three times.

T1 sequence (P68801 28-163): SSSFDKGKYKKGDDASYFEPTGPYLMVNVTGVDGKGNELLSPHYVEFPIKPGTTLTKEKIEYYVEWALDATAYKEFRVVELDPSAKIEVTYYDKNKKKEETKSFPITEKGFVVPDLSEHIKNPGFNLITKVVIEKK

## CCCCC/C=C\C/C=C\CCCCCCCC(=O)O [LA, linoleic acid]
S. pyogenes strain AP1
  Hazard ratio (Mantel-Haenszel) treated/untreated: 0.1429
  survival time in comparison with the untreated group: significantly extended the survival time
staphylokinase
  inhibition of staphylokinase-mediated plasminogen activation: not inhibited

## CCCCCC/C=C\CCCCCCCC(=O)O [PA, palmitoleic acid]
S. pyogenes strain AP1
  Hazard ratio (Mantel-Haenszel) treated/untreated: 0.1429
  survival time in comparison with the untreated group: significantly extended the survival time
staphylokinase
  inhibition of staphylokinase-mediated plasminogen activation: not inhibited
